# Results taken from the supplement of paper PMC11208160.
# Test: recombinant UMI read abundance after kanamycin selection (control-corrected) (log10(CPM+1)); higher = more efficient recombination; extreme values may be limits of the assay; sequences stand for … in AGTGCAGAGAAAATCGGCCAGTTTTCTCTGCCTGCAGTCCGCATGCCGTGGGACCCCTTGGGTTCTAACCTGTTGCCTAGATTTATGCAGCGGACTGCCTTTCTCCCAAAGTGATAAACCGG…AGGTTGGTTTCACT; site = the 11-nt donor
# How it was run: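 Pooled Escherichia coli screen of donor and donor-binding-loop pairs for the IS621 bridge recombinase. Each pair sits with a 12-nt UMI on a plasmid carrying a promoterless kanamycin gene. The library was co-electroporated with a target plasmid encoding a fixed target and T7-inducible recombinase, then plated with IPTG (0.07 mM) plus kanamycin, or unselected, each in two replicates. Recombinant UMIs were PCR-amplified across the donor–target junction and sequenced. Counts became CPM, averaged over replicates, scaled by control-derived factors and reported as log10(CPM+1).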
row,Sequence,recombinant UMI read abundance (log10)
1,CGGGAAACATGGACCGGTTTTCCCGGTAATCCGTATTTGAT (site CGGGAAGCTAT),2.21
2,CGGGAAACATGGACCGGTTTTCCCGGTAATCCGTATTTGAT (site CGGGAATCTAT),1.74
3,CGGGAACCATGGACCGGTTTTCCCGGTAATCCGTATTTGAT (site AGGGAACCTAT),0
4,CGGGAACCATGGACCGGTTTTCCCGGTAATCCGTATTTGAT (site CAGGAACCTAT),0
5,CGGGAACCATGGACCGGTTTTCCCGGTAATCCGTATTTGAT (site CCGGAACCTAT),0
6,CGGGAACCATGGACCGGTTTTCCCGGTAATCCGTATTTGAT (site CGAGAACCTAT),0
7,CGGGAACCATGGACCGGTTTTCCCGGTAATCCGTATTTGAT (site CGCGAACCTAT),0
8,CGGGAACCATGGACCGGTTTTCCCGGTAATCCGTATTTGAT (site CGGAAACCTAT),0
9,CGGGAACCATGGACCGGTTTTCCCGGTAATCCGTATTTGAT (site CGGCAACCTAT),0
10,CGGGAACCATGGACCGGTTTTCCCGGTAATCCGTATTTGAT (site CGGGAAACTAT),0
11,CGGGAACCATGGACCGGTTTTCCCGGTAATCCGTATTTGAT (site CGGGAACCTAA),0.00496
12,CGGGAACCATGGACCGGTTTTCCCGGTAATCCGTATTTGAT (site CGGGAACCTAC),0.0116
13,CGGGAACCATGGACCGGTTTTCCCGGTAATCCGTATTTGAT (site CGGGAACCTAG),0
14,CGGGAACCATGGACCGGTTTTCCCGGTAATCCGTATTTGAT (site CGGGAACCTAT),0
15,CGGGAACCATGGACCGGTTTTCCCGGTAATCCGTATTTGAT (site CGGGAACCTCT),0
16,CGGGAACCATGGACCGGTTTTCCCGGTAATCCGTATTTGAT (site CGGGAACCTGT),0
17,CGGGAACCATGGACCGGTTTTCCCGGTAATCCGTATTTGAT (site CGGGAACCTTT),0.00554
18,CGGGAACCATGGACCGGTTTTCCCGGTAATCCGTATTTGAT (site CGGGAAGCTAT),0
19,CGGGAACCATGGACCGGTTTTCCCGGTAATCCGTATTTGAT (site CGGGAATCTAT),0

row,Sequence,recombinant UMI read abundance (log10)
1,CGGGAACCATGGACCGGTTTTCCCGGTAATCCGTATTTGAT (site CGGGACCCTAT),0.0207
2,CGGGAACCATGGACCGGTTTTCCCGGTAATCCGTATTTGAT (site CGGGAGCCTAT),0
3,CGGGAACCATGGACCGGTTTTCCCGGTAATCCGTATTTGAT (site CGGGATCCTAT),0
4,CGGGAACCATGGACCGGTTTTCCCGGTAATCCGTATTTGAT (site CGGGCACCTAT),0.021
5,CGGGAACCATGGACCGGTTTTCCCGGTAATCCGTATTTGAT (site CGGGGACCTAT),0
6,CGGGAACCATGGACCGGTTTTCCCGGTAATCCGTATTTGAT (site CGGGTACCTAT),0
7,CGGGAACCATGGACCGGTTTTCCCGGTAATCCGTATTTGAT (site CGGTAACCTAT),0
8,CGGGAACCATGGACCGGTTTTCCCGGTAATCCGTATTTGAT (site CGTGAACCTAT),0
9,CGGGAACCATGGACCGGTTTTCCCGGTAATCCGTATTTGAT (site CTGGAACCTAT),0
10,CGGGAACCATGGACCGGTTTTCCCGGTAATCCGTATTTGAT (site GGGGAACCTAT),0
11,CGGGAACCATGGACCGGTTTTCCCGGTAATCCGTATTTGAT (site TGGGAACCTAT),0
12,CGGGAACCATGGACCGGTTTTCCCGGTAATCCGTATTTGGT (site CGGGAACCTAA),0.0297
13,CGGGAACCATGGACCGGTTTTCCCGGTAATCCGTATTTGGT (site CGGGAACCTAC),0
14,CGGGAACCATGGACCGGTTTTCCCGGTAATCCGTATTTGGT (site CGGGAACCTAG),0
15,CGGGAACCATGGACCGGTTTTCCCGGTAATCCGTATTTGGT (site CGGGAACCTAT),0
16,CGGGAAGCATGGACCGGTTTTCCCGGTAATCCGTATTTGAT (site CGGGAAACTAT),1.7
17,CGGGAAGCATGGACCGGTTTTCCCGGTAATCCGTATTTGAT (site CGGGAACCTAT),0
18,CGGGAAGCATGGACCGGTTTTCCCGGTAATCCGTATTTGAT (site CGGGAAGCTAT),1.9
19,CGGGAAGCATGGACCGGTTTTCCCGGTAATCCGTATTTGAT (site CGGGAATCTAT),1.85

row,Sequence,recombinant UMI read abundance (log10)
1,CGGGAATCATGGACCGGTTTTCCCGGTAATCCGTATTTGCC (site CGGGAATCTGG),2.51
2,CGGGAATCATGGACCGGTTTTCCCGGTAATCCGTATTTGCC (site CGGGACTCTGG),1.28
3,CGGGAATCATGGACCGGTTTTCCCGGTAATCCGTATTTGCC (site CGGGAGTCTGG),2.11
4,CGGGAATCATGGACCGGTTTTCCCGGTAATCCGTATTTGCC (site CGGGATTCTGG),0.646
5,CGGGACCCATGGACCGGTTTTCCCGGTAATCCGTATTTGAT (site CGGGAACCTAT),0.00853
6,CGGGACCCATGGACCGGTTTTCCCGGTAATCCGTATTTGAT (site CGGGACCCTAT),0.879
7,CGGGACCCATGGACCGGTTTTCCCGGTAATCCGTATTTGAT (site CGGGAGCCTAT),0.00629
8,CGGGACCCATGGACCGGTTTTCCCGGTAATCCGTATTTGAT (site CGGGATCCTAT),0
9,CGGGACGCATGGACCGGTTTTCCCGGTAATCCGTATTTGTA (site CGGGACGCTTA),2.82
10,CGGGACTCATGGACCGGTTTTCCCGGTAATCCGTATTTGCC (site CGGGAATCTGG),2.14
11,CGGGACTCATGGACCGGTTTTCCCGGTAATCCGTATTTGCC (site CGGGACTCTGG),3.01
12,CGGGACTCATGGACCGGTTTTCCCGGTAATCCGTATTTGCC (site CGGGAGTCTGG),0
13,CGGGACTCATGGACCGGTTTTCCCGGTAATCCGTATTTGCC (site CGGGATTCTGG),1.77
14,CGGGAGTCATGGACCGGTTTTCCCGGTAATCCGTATTTGCA (site CGGGAGTCTAG),1.74
15,CGGGAGTCATGGACCGGTTTTCCCGGTAATCCGTATTTGCA (site CGGGAGTCTCG),2.73
16,CGGGAGTCATGGACCGGTTTTCCCGGTAATCCGTATTTGCA (site CGGGAGTCTGG),1.15
17,CGGGAGTCATGGACCGGTTTTCCCGGTAATCCGTATTTGCA (site CGGGAGTCTTG),2.89
18,CGGGCGTCATGGACCGGTTTTCCCGGTAATCCGTATTTGCC (site CGGGAGTCTGG),0
19,CGGGCGTCATGGACCGGTTTTCCCGGTAATCCGTATTTGCC (site CGGGCGTCTGG),2.89
